Experimental data as given in patent US9770452B2, “Quinoxaline derivatives as GPR6 modulators” (Takeda Pharmaceutical Company Limited, priority 2012, dated 2017).
Values belong to the compound of their own block, whether it stands above or below them.

Tests used:
[1] = system: haloperidol-induced catalepsy; test: Haloperidol-Induced Catalepsy, in vivo rodent Parkinson's disease model (rats); details: rat, 10 mpk sc
From the text: (§1) Haloperidol-Induced Catalepsy—In Vivo Rodent Parkinson's Disease Model
The motor symptoms of Parkinson's disease include akinesia, bradykinesia, rigidity, tremor and postural abnormalities and are associated with the loss of nigral dopaminergic cells and a decline in striatal dopamine levels. Administration of haloperidol to rodents leads to a transient parkinsonian-like state that is reversed by the administration of L-Dopa (Duty, S.; Jenner, P. Br. J. Pharmacol. (2011), 164, 1357-1391) and other drugs that have been clinically validated for the treatment of Parkinson's disease. […]
Male Sprague-Dawley rats (Charles River, Calco, Italy) weighing 175-200 g are used. […] The time span from placement of the paws until the first complete removal of one paw (descent latency) was measured maximally for 120 sec for rats. For mice, the front paws of a mouse was placed on a horizontal metal bar raised 2″ above a Plexiglas platform and time was recorded for up to 30 seconds per trial. […]
Catalepsy was measured 30 min, 120 min, and/or 240 min after dosing the subjects a 0.3 mg/kg i.p. dose of haloperidol along with the GPR6 modulator test compound. Test compound plasma and brain levels were determined by collected tissue samples at the end of the experiment, which was either at the 120 or 240 min time point. […]

GPR6 receptor = molecular target: T1, GPR6 receptor (Homo sapiens, UniProt P46095); test: Inhibition of cAMP Activity of GPR6 In Vitro Assay (CHO-K1 cells, HTRF cAMP); assay type: cell-based; details: compounds of Compound Table 1; inhibition of constitutive cAMP activity of GPR6 expressed in CHO-K1 cells; approximate IC50; read-out: IC50
T1 construct: expressed in transfected cells
Method in brief: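 CHO-K1 cells with doxycycline-induced (1 μg/ml, 20 h) GPR6 treated with compounds 45 min at 37 °C in Ringer's buffer (pH 7.4) with 0.5% fatty acid free BSA. Constitutive cAMP measured by Lance HTRF Ultra cAMP; IC50 from four-parameter logistic fit.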

[2] = system: haloperidol-induced catalepsy; test: Haloperidol-Induced Catalepsy, in vivo rodent Parkinson's disease model (mice); details: mouse; for % reversal 30 min: 30 min after dosing with haloperidol; for % reversal 120 min: 120 min after dosing with haloperidol
From the text: as §1
The motor symptoms of Parkinson's disease include akinesia, bradykinesia, rigidity, tremor and postural abnormalities and are associated with the loss of nigral dopaminergic cells and a decline in striatal dopamine levels. Administration of haloperidol to rodents leads to a transient parkinsonian-like state that is reversed by the administration of L-Dopa (Duty, S.; Jenner, P. Br. J. Pharmacol. (2011), 164, 1357-1391) and other drugs that have been clinically validated for the treatment of Parkinson's disease. Haloperidol antagonizes dopamine D2 and, to a lesser extent, D1 receptors in medium spiny neurons that comprise the indirect and direct pathways of the motor circuit respectively. The resultant block of striatal dopamine transmission results in abnormal downstream firing within the basal ganglia circuits that is manifest as symptoms of muscle rigidity and catalepsy. Catalepsy has been postulated to reflect the clinical features of Parkinson's disease, whereby patients experience an inability of to initiate movements.
Male Sprague-Dawley rats (Charles River, Calco, Italy) weighing 175-200 g are used. Alternatively, male C57Bl6 mice weighing 25-35 g were used. The cataleptic state was induced by the subcutaneous administration of the dopamine receptor antagonist haloperidol (0.3 mg/kg, sc), 90 min before testing the animals on the vertical grid test. For this test, the rats or mice were placed on the wire mesh cover of a 25 cm×43 cm plexiglass cage placed at an angle of about 70 degrees with the bench table. The subject was placed on the grid with all four legs abducted and extended (“frog posture”). The use of such an unnatural posture is essential for the specificity of this test for catalepsy. The time span from placement of the paws until the first complete removal of one paw (descent latency) was measured maximally for 120 sec for rats. For mice, the front paws of a mouse was placed on a horizontal metal bar raised 2″ above a Plexiglas platform and time was recorded for up to 30 seconds per trial. The test ended when the animal's front paws returned to the platform or after 30 seconds. The test was repeated three times and the average of the three trials was reported as the intensity index of catalepsy.
Catalepsy was measured 30 min, 120 min, and/or 240 min after dosing the subjects a 0.3 mg/kg i.p. dose of haloperidol along with the GPR6 modulator test compound. Test compound plasma and brain levels were determined by collected tissue samples at the end of the experiment, which was either at the 120 or 240 min time point. A representative number of compounds of the invention were administered in a dose range from 0.1 to 100 mg/kg i.p, sc or po in conjunction with haloperidol. The A2a antagonist KW6002 (istradefylline) was dosed at 0.6 mg/kg i.p. as a positive control. The compounds of the invention produced reversal of haloperidol-induced catalepsy. The results of a representative no. of compounds of this invention in this assay are disclosed in the table below.

T1 sequence (P46095 whole entry): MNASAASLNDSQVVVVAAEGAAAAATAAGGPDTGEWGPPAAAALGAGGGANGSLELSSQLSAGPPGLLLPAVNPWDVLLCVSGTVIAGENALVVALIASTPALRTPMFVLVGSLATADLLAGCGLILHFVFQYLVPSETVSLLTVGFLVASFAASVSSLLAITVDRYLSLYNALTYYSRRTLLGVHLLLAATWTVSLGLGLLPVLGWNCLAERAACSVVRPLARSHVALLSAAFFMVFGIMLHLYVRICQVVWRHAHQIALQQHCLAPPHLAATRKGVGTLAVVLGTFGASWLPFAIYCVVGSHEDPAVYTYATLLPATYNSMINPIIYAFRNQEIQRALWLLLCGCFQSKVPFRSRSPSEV

Compound: 3-(4-(2,4-difluorobenzyl)piperidin-1-yl)-2-(pyridin-3-ylamino)quinoxaline-6-carbonitrile, 2,2,2-trifluoroacetic acid salt [Cpd 415]
% reversal 30 min ([1]; 30 min after dosing with haloperidol): 36.9%
% reversal 120 min ([1]; 120 min after dosing with haloperidol): 25.1%
IC50 (GPR6 receptor): 64 nM

IC50 (GPR6 receptor): 2160 nM
Compound: Clc1ccc(Cl)c(CN2CCN(c3nc4ccccc4nc3NC3CC3)CC2)c1.O=C(O)C(F)(F)F [Cpd 33, N-cyclopropyl-3-(4-(2,5-dichlorobenzyl)piperazin-1-yl)quinoxalin-2-amine, 2,2,2-trifluoroacetic acid salt]
% reversal 30 min ([2]; 30 mpk ip): 48.1%
% reversal 120 min ([2]; 30 mpk ip): 41.4%

Compound: Clc1cccc(Cl)c1CN1CCN(c2nc3ccccc3nc2NC2CC2)CC1.O=C(O)C(F)(F)F [Cpd 50, N-cyclopropyl-3-(4-(2,6-dichlorobenzyl)piperazin-1-yl)quinoxalin-2-amine, 2,2,2-trifluoroacetic acid salt]
% reversal 30 min ([2]; 30 mpk ip): 40.4%
% reversal 120 min ([2]; 30 mpk ip): 29.6%

IC50 (GPR6 receptor): 1200 nM
Compound: Clc1cccc(CN2CCN(c3nc4ccccc4nc3Nc3cccnc3)CC2)c1.O=C(O)C(F)(F)F [Cpd 53, 3-(4-(3-chlorobenzyl)piperazin-1-yl)-N-(pyridin-3-yl)quinoxalin-2-amine, 2,2,2-trifluoroacetic acid salt]
% reversal 30 min ([2]; 30 mpk ip): 13.6%
% reversal 120 min ([2]; 30 mpk ip): 15.4%

IC50 (GPR6 receptor): 250 nM
Compound: N#Cc1ccc2nc(NC3CC3)c(N3CCN(Cc4cc(Cl)ccc4Cl)CC3)nc2c1 [Cpd 59, 2-(cyclopropylamino)-3-(4-(2,5-dichlorobenzyl)piperazin-1-yl) quinoxaline-6-carbonitrile]
% reversal 30 min ([2]; 10 mpk ip): 42%
% reversal 120 min ([2]; 10 mpk ip): 18.8%
% reversal 30 min ([2]; 30 mpk ip): 27.4%
% reversal 120 min ([2]; 30 mpk ip): 15.7%

Compound: N-cyclopropyl-3-(4-((4-(trifluoromethyl)phenyl)sulfonyl)piperazin-1-yl)pyrido[3,4-b]pyrazin-2-amine, 2,2,2-trifluoroacetic acid salt [Cpd 302]
IC50 (GPR6 receptor): 340 nM

Compound: N-cyclopropyl-3-(4-((4-fluorophenyl)sulfonyl)piperazin-1-yl)pyrido[3,4-b]pyrazin-2-amine, 2,2,2-trifluoroacetic acid salt [Cpd 288]
IC50 (GPR6 receptor): 2650 nM

Compound: N-cyclopropyl-3-(4-((4-fluorophenyl)sulfonyl)piperidin-1-yl)-7-methylpyrido[3,4-b]pyrazin-2-amine 2,2,2-trifluoroacetate [Cpd 654]
IC50 (GPR6 receptor): 30 nM

Compound: N-cyclopropyl-3-(4-((5-methylisoxazol-3-yl)methyl)piperazin-1-yl)quinoxalin-2-amine, 2,2,2-trifluoroacetic acid salt [Cpd 158]
IC50 (GPR6 receptor): 440 nM

Compound: N-cyclopropyl-3-(4-(pyridin-4-yloxy)piperidin-1-yl)pyrido[3,4-b]pyridin-2-amine [Cpd 554]
IC50 (GPR6 receptor): 190 nM

Compound: N-ethyl-3-(4-(2-fluoro-4-methoxyphenoxy)piperidin-1-yl)pyrido[3,4-b]pyrazin-2-amine, 2,2,2-trifluoroacetic acid salt [Cpd 622]
IC50 (GPR6 receptor): 29 nM

Compound: azetidin-1-yl(2-(cyclopropylamino)-3-(4-(2-fluoro-4-methoxyphenoxy)piperidin-1-yl)pyrido[3,4-b]pyrazin-5-yl)methanone, 2,2,2-trifluoroacetic acid salt [Cpd 610]
IC50 (GPR6 receptor): 1570 nM

Compound: mixture of N-cyclopropyl-3-(4-(2,5-dichlorobenzyl)piperazin-1-yl)-7-methoxyquinoxalin-2-amine, 2,2,2-trifluoroacetic acid salt and N-cyclopropyl-3-(4-(2,5-dichlorobenzyl)piperazin-1-yl)-7-methoxyquinoxalin-2-amine, 2,2,2-trifluoroacetic acid salt [Cpd 47]
IC50 (GPR6 receptor): 3360 nM
